According to patent publication US20220041582A1, “ISOXAZOLINE COMPOUNDS FOR CONTROLLING INVERTEBRATE PESTS” (FMC Corporation, priority 2018, published 2022):
Read-outs that look alike come from different tables or passages of the source.

Columns and labels:
Format in all cases: in vivo
[1] = tested on: cotton melon aphid (Aphis gossypii (Glover)); experiment: Test F: control of cotton melon aphid through contact and/or systemic means; settings: 144 h
Method: (§1) Formulation and Spray Methodology for Tests A-H
(§2) Test compounds were formulated using a solution containing 10% acetone, 90% water and 300 ppm Activator 90® non-ionic surfactant (Loveland Products, Loveland, Colo., USA). The formulated compounds were applied in 1 mL of liquid through an atomizer nozzle positioned 1.27 cm (0.5 inches) above the top of each test unit. Test compounds were sprayed at the rates indicated, and each test was replicated three times.
[…] This was pre-infested with 30-40 insects on a piece of leaf according to the cut-leaf method, and the soil of the test unit was covered with a layer of sand.
Test compounds were formulated and sprayed at 250, 50 and 10 ppm. After spraying, the test units were maintained in a growth chamber for 6 days at 19° C. and 70% relative humidity. Each test unit was then visually assessed for insect mortality.

[2] = tested on: potato leafhopper (Empoasca fabae (Harris)); experiment: Test D: control of potato leafhopper through contact and/or systemic means; settings: 144 h
Method: as §1, §2
[…] White sand was added to the top of the soil, and one of the primary leaves was excised prior to application of the test compound.
Test compounds were formulated and sprayed at 250, 50 and 10 ppm. After spraying of the formulated test compound, the test units were allowed to dry for 1 hour before they were post-infested with 5 potato leafhoppers (18-to-21-day-old adults). A black, screened cap was placed on the top of the test unit, and the test units were held for 6 days in a growth chamber at 20° C. and 70% relative humidity. Each test unit was then visually assessed for insect mortality.

[3] = tested on: green peach aphid (Myzus persicae (Sulzer)); experiment: Test E: control of green peach aphid through contact and/or systemic means; settings: 144 h
Method: as §1, §2
For evaluating control of green peach aphid (Myzus persicae (Sulzer)) through contact and/or systemic means, the test unit consisted of a small open container with a 12-15-day-old radish plant inside. This was pre-infested by placing on a leaf of the test plant 30-40 aphids on a piece of leaf excised from a culture plant (cut-leaf method). The aphids moved onto the test plant as the leaf piece desiccated. After pre-infestation, the soil of the test unit was covered with a layer of sand.
Test compounds were formulated and sprayed at 250, 50 and 10 ppm. After spraying of the formulated test compound, each test unit was allowed to dry for 1 hour and then a black, screened cap was placed on top. The test units were held for 6 days in a growth chamber at 19-21° C. and 50-70% relative humidity. Each test unit was then visually assessed for insect mortality.

[4] = tested on: sweetpotato whitefly (Bemisia tabaci (Gennadius)); experiment: Test G: control of sweetpotato whitefly through contact and/or systemic means; settings: 312 h
Method: as §1, §2
For evaluating control of the sweetpotato whitefly (Bemisia tabaci (Gennadius)) through contact and/or systemic means, the test unit consisted of a small open container with a 12-14-day-old cotton plant inside. Prior to the spray application, both cotyledons were removed from the plant, leaving one true leaf for the assay. Adult whiteflies were allowed to lay eggs on the plant and then were removed from the test unit. Cotton plants infested with at least 15 eggs were submitted to the test for spraying.
Test compounds were formulated and sprayed at 250, 50 and 10 ppm. After spraying, the test units were allowed to dry for 1 hour. The cylinders were then removed, and the units were taken to a growth chamber and held for 13 days at 28° C. and 50-70% relative humidity. Each test unit was then visually assessed for insect mortality.

[5] = tested on: corn planthopper (Peregrinus maidis (Ashmead)); experiment: Test C: control of corn planthopper through contact and/or systemic means; settings: for mortality at 50 ppm: Peregrinus maidis, 144 h
Method: as §1, §2
For evaluating control of corn planthopper (Peregrinus maidis (Ashmead)) through contact and/or systemic means, the test unit consisted of a small open container with a 3-4-day-old corn (maize) plant inside. White sand was added to the top of the soil prior to application of the test compound.
Test compounds were formulated and sprayed at 50 and 10 ppm. After spraying of the formulated test compound, the test units were allowed to dry for 1 h before they were post-infested with ˜15-20 nymphs (18-to-21-day-old). A black, screened cap was placed on the top of each test unit, and the test units were held for 6 days in a growth chamber at 22-24° C. and 50-70% relative humidity. Each test unit was then visually assessed for insect mortality.

[6] = 50 ppm spray, 6 days, read-out: mortality

Structure (SMILES): CC(C)(C)NC(=O)c1ccc(C2=NOC(c3cc(Cl)c(F)c(Cl)c3)(C(F)(F)F)C2)c2ccncc12 (centres unmarked) [Compound 2, 5-[5-(3,5-dichloro-4-fluorophenyl)-4,5-dihydro-5-(trifluoromethyl)-3-isoxazolyl]-N-(1,1-dimethylethyl)-8-isoquinolinecarboxamide]
- mortality at 10 ppm [1]: ≥ 80%
- mortality at 50 ppm [1]: ≥ 80%
- mortality at 250 ppm [1]: ≥ 80%
- mortality at 50 ppm [2]: ≥ 80%
- mortality at 250 ppm [2]: ≥ 80%
- mortality at 50 ppm [3]: ≥ 80%
- mortality at 250 ppm [3]: ≥ 80%
- mortality at 10 ppm [4]: ≥ 50%
- mortality at 50 ppm [4]: ≥ 50%
- mortality at 250 ppm [4]: ≥ 50%

Structure (SMILES): O=C(NCc1ncccn1)c1ccc(C2=NOC(c3cc(Cl)c(F)c(Cl)c3)(C(F)(F)F)C2)c2ccncc12 (centres unmarked) [Compound 4, 5-[5-(3,5-dichloro-4-fluorophenyl)-4,5-dihydro-5-(trifluoromethyl)-3-isoxazolyl]-N-(2-pyrimidinylmethyl)-8-isoquinolinecarboxamide]
- mortality at 10 ppm [1]: ≥ 80%
- mortality at 50 ppm [1]: ≥ 80%
- mortality at 50 ppm [2]: ≥ 80%
- mortality at 50 ppm [5]: ≥ 80%
- mortality at 50 ppm [3]: ≥ 80%
- mortality at 10 ppm [4]: ≥ 50%
- mortality at 50 ppm [4]: ≥ 50%

Structure (SMILES): COC(=O)[C@@H](C)NC(=O)c1ccc(C2=NOC(c3cc(Cl)c(F)c(Cl)c3)(C(F)(F)F)C2)c2ccncc12 (some centres unmarked) [Compound 6]
- mortality at 10 ppm [1]: ≥ 80%
- mortality at 50 ppm [1]: ≥ 80%
- mortality at 50 ppm [2]: ≥ 80%
- mortality at 50 ppm [5]: ≥ 80%
- mortality at 10 ppm [3]: ≥ 80%
- mortality at 50 ppm [3]: ≥ 80%
- mortality at 50 ppm [4]: ≥ 50%

Structure (SMILES): O=C(NCc1cnccn1)c1ccc(C2=NOC(c3cc(Cl)c(F)c(Cl)c3)(C(F)(F)F)C2)c2ccncc12 (centres unmarked) [Compound 7]
- mortality at 50 ppm [1]: ≥ 80%
- mortality at 50 ppm [2]: ≥ 80%
- mortality at 50 ppm [3]: ≥ 80%
- mortality at 50 ppm [4]: ≥ 50%

Structure (SMILES): N#CC1(CNC(=O)c2ccc(C3=NOC(c4cc(Cl)c(F)c(Cl)c4)(C(F)(F)F)C3)c3ccncc23)CC1 (centres unmarked) [Compound 10]
- mortality at 50 ppm [1]: ≥ 80%
- mortality at 50 ppm [2]: ≥ 80%
- mortality at 50 ppm [3]: ≥ 80%
- mortality at 10 ppm [4]: ≥ 50%
- mortality at 50 ppm [4]: ≥ 50%

Structure (SMILES): C[C@@H](NC(=O)c1ccc(C2=NOC(c3cc(Cl)c(F)c(Cl)c3)(C(F)(F)F)C2)c2ccncc12)c1ccccn1 (some centres unmarked) [Compound 13]
- mortality at 10 ppm [1]: ≥ 80%
- mortality at 50 ppm [1]: ≥ 80%
- mortality at 10 ppm [2]: ≥ 80%
- mortality at 50 ppm [2]: ≥ 80%
- mortality at 10 ppm [3]: ≥ 80%
- mortality at 50 ppm [3]: ≥ 80%
- mortality at 10 ppm [4]: ≥ 50%
- mortality at 50 ppm [4]: ≥ 50%

Structure (SMILES): O=C(NCc1ncccn1)c1ccc(C2=NOC(c3cccc(C(F)(F)F)c3)(C(F)(F)F)C2)c2ccncc12 (centres unmarked) [Compound 18]
- mortality at 50 ppm [1, 6]: ≥ 80%
- mortality at 50 ppm [5, 6]: ≥ 80%
- mortality at 10 ppm ([3]; 10 ppm spray, 6 days, read-out: mortality): ≥ 80%
- mortality at 50 ppm [3, 6]: ≥ 80%

Structure (SMILES): COCC(C)NC(=O)c1ccc(C2=NOC(c3cc(Cl)c(F)c(Cl)c3)(C(F)(F)F)C2)c2ccncc12 (centres unmarked) [Compound 20]
- mortality at 10 ppm [1]: ≥ 80%
- mortality at 50 ppm [1]: ≥ 80%
- mortality at 50 ppm [2]: ≥ 80%
- mortality at 10 ppm [3]: ≥ 80%
- mortality at 50 ppm [3]: ≥ 80%
- mortality at 10 ppm [4]: ≥ 50%
- mortality at 50 ppm [4]: ≥ 50%

Structure (SMILES): CS(=O)(=O)N1CC(NC(=O)c2ccc(C3=NOC(c4cc(Cl)c(F)c(Cl)c4)(C(F)(F)F)C3)c3ccncc23)C1 (centres unmarked) [Compound 21, 5-[5-(3,5-dichloro-4-fluorophenyl)-4,5-dihydro-5-(trifluoromethyl)-3-isoxazolyl]-N-[1-(methylsulfonyl)-3-azetidinyl]-8-isoquinolinecarboxamide]
- mortality at 50 ppm [1]: ≥ 80%
- mortality at 50 ppm [2]: ≥ 80%
- mortality at 50 ppm [4]: ≥ 50%

Structure (SMILES): O=C(NC1CC1)c1ccc(C2=NOC(c3cc(Cl)c(F)c(Cl)c3)(C(F)(F)F)C2)c2ccncc12 (centres unmarked) [Compound 23, N-cyclopropyl-5-[5-(3,5-dichloro-4-fluorophenyl)-4,5-dihydro-5-(trifluoromethyl)-3-isoxazolyl]-8-isoquinolinecarboxamide]
- mortality at 10 ppm [1]: ≥ 80%
- mortality at 50 ppm [1]: ≥ 80%
- mortality at 50 ppm [2]: ≥ 80%
- mortality at 10 ppm [3]: ≥ 80%
- mortality at 50 ppm [3]: ≥ 80%

Structure (SMILES): CC(C)NC(=O)c1ccc(C2=NOC(c3cc(Cl)c(F)c(Cl)c3)(C(F)(F)F)C2)c2ccncc12 (centres unmarked) [Compound 28]
- mortality at 10 ppm [1]: ≥ 80%
- mortality at 50 ppm [1]: ≥ 80%
- mortality at 50 ppm [2]: ≥ 80%
- mortality at 10 ppm [3]: ≥ 80%
- mortality at 50 ppm [3]: ≥ 80%
- mortality at 10 ppm [4]: ≥ 50%
- mortality at 50 ppm [4]: ≥ 50%

Structure (SMILES): CSCCNC(=O)c1ccc(C2=NOC(c3cccc(C(F)(F)F)c3)(C(F)(F)F)C2)c2ccncc12 (centres unmarked) [Compound 29]
- mortality at 50 ppm [1, 6]: ≥ 80%
- mortality at 50 ppm [5, 6]: ≥ 80%
- mortality at 50 ppm [3, 6]: ≥ 80%

Structure (SMILES): O=C(NC1CC1)c1ccc(C2=NOC(c3cc(Cl)cc(C(F)(F)F)c3)(C(F)(F)F)C2)c2ccncc12 (centres unmarked) [Compound 35, 5-[5-[3-chloro-5-(trifluoromethyl)phenyl]-4,5-dihydro-5-(trifluoromethyl)-3-isoxazolyl]-N-cyclopropyl-8-isoquinolinecarboxamide]
- mortality at 10 ppm [1]: ≥ 80%
- mortality at 50 ppm [1]: ≥ 80%
- mortality at 10 ppm [2]: ≥ 80%
- mortality at 50 ppm [2]: ≥ 80%
- mortality at 50 ppm [5]: ≥ 80%
- mortality at 10 ppm [3]: ≥ 80%
- mortality at 50 ppm [3]: ≥ 80%
- mortality at 10 ppm [4]: ≥ 50%
- mortality at 50 ppm [4]: ≥ 50%

Structure (SMILES): O=C(NCC1CC1)c1ccc(C2=NOC(c3cc(Cl)cc(C(F)(F)F)c3)(C(F)(F)F)C2)c2ccncc12 (centres unmarked) [Compound 36, 5-[5-[3-chloro-5-(trifluoromethyl)phenyl]-4,5-dihydro-5-(trifluoromethyl)-3-isoxazolyl]-N-(cyclopropylmethyl)-8-isoquinolinecarboxamide]
- mortality at 10 ppm [1]: ≥ 80%
- mortality at 50 ppm [1]: ≥ 80%
- mortality at 10 ppm [2]: ≥ 80%
- mortality at 50 ppm [2]: ≥ 80%
- mortality at 10 ppm [3]: ≥ 80%
- mortality at 50 ppm [3]: ≥ 80%
- mortality at 10 ppm [4]: ≥ 50%
- mortality at 50 ppm [4]: ≥ 50%

Structure (SMILES): C#CCNC(=O)c1ccc(C2=NOC(c3cc(Cl)c(F)c(Cl)c3)(C(F)(F)F)C2)c2ccncc12 (centres unmarked) [Compound 48, 5-[5-(3,5-dichloro-4-fluorophenyl)-4,5-dihydro-5-(trifluoromethyl)-3-isoxazolyl]-N-2-propyn-1-yl-8-isoquinolinecarboxamide]
- mortality at 50 ppm [1]: ≥ 80%
- mortality at 50 ppm [2]: ≥ 80%
- mortality at 50 ppm [5]: ≥ 80%
- mortality at 50 ppm [3]: ≥ 80%

Structure (SMILES): C[C@H](CSCC(F)(F)F)NC(=O)c1ccc(C2=NOC(c3cc(Cl)c(F)c(Cl)c3)(C(F)(F)F)C2)c2ccncc12 (some centres unmarked) [Compound 62]
- mortality at 50 ppm [1]: ≥ 80%
- mortality at 50 ppm [2]: ≥ 80%
- mortality at 50 ppm [4]: ≥ 50%

Structure (SMILES): O=C(NC1CC1)c1ccc(C2=NOC(c3cc(Cl)cc(Cl)c3)(C(F)(F)F)C2)c2ccncc12 (centres unmarked) [Compound 70, N-cyclopropyl-5-[5-(3,5-dichlorophenyl)-4,5-dihydro-5-(trifluoromethyl)-3-isoxazolyl]-8-isoquinolinecarboxamide]
- mortality at 10 ppm [1]: ≥ 80%
- mortality at 50 ppm [1]: ≥ 80%
- mortality at 50 ppm [2]: ≥ 80%
- mortality at 50 ppm [3]: ≥ 80%

Structure (SMILES): O=C(NCc1ncccn1)c1ccc(C2=NOC(c3ccc(F)c(C(F)(F)F)c3)(C(F)(F)F)C2)c2ccncc12 (centres unmarked) [Compound 76]
- mortality ([5]; 10 ppm spray, 6 days): at least 80%

Structure (SMILES): O=C(NC1CC1)c1ccc(C2=NO[C@@](c3cc(Cl)c(F)c(Cl)c3)(C(F)(F)F)C2)c2ccncc12 [Compound 82, S—N-cyclopropyl-5-[5-(3,5-dichloro-4-fluorophenyl)-4,5-dihydro-5-(trifluoromethyl)-3-isoxazolyl]-8-isoquinolinecarboxamide]
- mortality at 10 ppm [1]: ≥ 80%
- mortality at 50 ppm [1]: ≥ 80%
- mortality at 50 ppm [2]: ≥ 80%
- mortality at 10 ppm [3]: ≥ 80%
- mortality at 50 ppm [3]: ≥ 80%
